We go through 15 compounds from patent US8389563B2, “C-substituted diindolylmethane compositions and methods for the treatment of multiple cancers” (The Texas A&M University System, priority 2000, dated 2013).

For one data set, the target named is T1, Ah receptor (Rattus norvegicus, UniProt P41738).
T1 sequence (P41738 10-853): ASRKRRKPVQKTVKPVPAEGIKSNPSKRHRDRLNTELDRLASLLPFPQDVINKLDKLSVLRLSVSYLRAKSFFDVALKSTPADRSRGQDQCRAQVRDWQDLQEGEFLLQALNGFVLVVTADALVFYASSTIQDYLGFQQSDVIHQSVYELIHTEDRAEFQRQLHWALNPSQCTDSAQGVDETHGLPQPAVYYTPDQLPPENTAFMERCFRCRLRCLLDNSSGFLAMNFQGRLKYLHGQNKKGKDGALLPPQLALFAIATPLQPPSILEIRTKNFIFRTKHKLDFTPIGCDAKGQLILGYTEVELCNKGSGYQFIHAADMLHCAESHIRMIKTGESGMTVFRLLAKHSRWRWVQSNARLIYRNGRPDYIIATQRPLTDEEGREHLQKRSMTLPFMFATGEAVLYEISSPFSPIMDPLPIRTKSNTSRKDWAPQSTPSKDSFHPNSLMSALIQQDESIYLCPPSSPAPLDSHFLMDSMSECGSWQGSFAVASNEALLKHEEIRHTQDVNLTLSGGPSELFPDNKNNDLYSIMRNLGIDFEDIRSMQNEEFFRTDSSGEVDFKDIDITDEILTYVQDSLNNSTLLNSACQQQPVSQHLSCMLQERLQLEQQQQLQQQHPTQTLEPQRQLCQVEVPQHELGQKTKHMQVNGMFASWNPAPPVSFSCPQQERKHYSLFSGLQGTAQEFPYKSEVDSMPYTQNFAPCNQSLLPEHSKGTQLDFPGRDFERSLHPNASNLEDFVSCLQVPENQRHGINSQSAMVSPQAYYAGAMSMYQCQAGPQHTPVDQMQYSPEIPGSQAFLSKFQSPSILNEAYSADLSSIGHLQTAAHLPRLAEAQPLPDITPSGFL
Nature of the data set: Ah receptor competitive binding.

The subject of data set [1] is TCCSUP human bladder cancer cell line. Description: Cell proliferation of TCCSUP bladder cancer cells. Format: cell-based. To be noted: for Proliferation of TCCSUP human bladder cancer cells: 0.1-10 μM, cell growth over 4-10 days; for Lowest concentration at which TCCSUP cells were inhibited: lowest concentration tested. On the procedure:
(§1) Initial studies used TCCSUP and J82 human bladder cancer cell lines that were maintained in RPMI culture media supplemented with 10% fetal bovine serum. Cell proliferation studies were carried out in multi-well plates, and compounds (in DMSO, 0.1% vol./vol.) were added and cell growth was determined over a period of 4 10 days. The growth inhibitory properties of DIM and related analogs were determined using the following prototypical compounds: DIM, 5,5′-dimethylDIM (5-Me-DIM), 2,2′-dimethylDIM (2-Me-DIM), and 5,5′-dichloroDIM (5-Cl-DIM) at concentrations from 0.1 10 μM.
as §1, with “Initial studies on the possible protective role for DIM compounds in bladder cancer used TCCSUP” for “Initial studies used TCCSUP”

The test system of data set [2] is J82 human bladder cancer cell line. Description: Cell proliferation of J82 bladder cancer cells. In kind it is cell-based. To be noted: 0.1-10 μM, cell growth over 4-10 days. As to the method: as §1
as §1, with “Initial studies on the possible protective role for DIM compounds in bladder cancer used TCCSUP” for “Initial studies used TCCSUP”

Data set [3] relates to HT-29 human colon cancer cells. Nature of the data set: Cell proliferation and apoptosis of HT-29 colon cancer cells. In kind it is cell-based. On the procedure:
Studies with HT-29 human colon cancer cells also indicate that DIM and related analogs protect against colon cancer. HT-29 cells were grown in DMEM and serum and treated with 25 μM DIM and 4,4′-dichloroDIM. After 72 hr, there was a 73 and 92% decrease in cell proliferation, respectively, and these antiproliferative effects could be observed with cell concentrations as low as 10 μM.
Preliminary studies with HT-29 human colon cancer cells also indicate that DIM and related analogs protect against colon cancer. HT-29 cells were grown in DMEM and serum and treated with 25 μM DIM and 4,4′-dichloroDIM. After 72 hours, there was a 73 and 92% decrease in cell proliferation, respectively, and these antiproliferative effects could be observed with concentrations as low as 10 μM.

Data set [4] relates to mitogen-activated protein kinase (MAPKK). Description: MAPKK-induced pSRE reporter activity in MCF-7 cells. To be noted: 1 or 5 μM, MCF-7 cells transfected with pMAPKK and pSRE. Format: cell-based. From the text: Therefore, we have been investigating the inhibitory effects of DIMs on kinase activities and our initial studies have examined inhibition of mitogen-activated protein kinase (MAPKK) which regulates expression of multiple genes involved in cell proliferation. MCF-7 cells are transfected with a constitutively active MAPKK expression plasmid (pMAPKK), and induction of activity is monitored through activation of the construct pSRE which contains a MAPKK-inducible serum response element (SRE) from the cfos protooncogene (Duan et al., “Estrogen receptor-mediated activation of the serum response element in MCF-7 cells through MAPK-dependent phosphorylation of Elk-1” J. Biol. Chem. 276:11590 11598, 2001).

For data set [5], the system named is MCF-7 human breast cancer cells. Nature of the data set: Proliferation of MCF-7 breast cancer cells, alone or with 1 nM E2. In kind it is cell-based. To be noted: for E2-induced MCF-7 cell proliferation: co-treated with 1 nM E2; for Growth of MCF-7 cells, compound alone: up to 10 μM.
The subject of data set [6] is T47D human breast cancer cells. Description: Estrogenic and antiestrogenic activity in T47D cells (proliferation, alone or with 1 nM E2). Format: cell-based. To be noted: in combination with 1 nM E2. An excerpt: In a separate study, it was also shown that the same compounds and other C-substituted DIMs were also antiestrogenic in T47D cells, and these include the C-p-phenol and C-p-anisole compounds in which R1═CH3 (methyl) (i.e., NMe-CPh-OHDIM and NMe-CPh-MeODIM, respectively) (FIG. 3).

For data set [7], the system named is DMBA-induced mammary tumor. Description: DMBA-induced rat mammary tumor model. To be noted: 1.0 mg/kg every 2 days; for Mammary tumor growth in DMBA-induced rats: tumor volumes over 21 days. In kind it is in vivo, female Sprague-Dawley rats.
Data set [8] in a line: Body/organ weights, EROD and histopathology in the DMBA-induced rat study. Format: in vivo, female Sprague-Dawley rats. To be noted: 1.0 mg/kg every 2 days.

Entries after “also recorded” stand apart in the source; their conditions may differ. Where two headings read alike, the source gives them in different places. Marks after values point to notes of the source that are not given here.

As usually defined, the IC50 is the concentration that inhibits the measured activity by half. On Ah receptor, `Cn1cc(C(c2ccc(Cl)cc2)c2cn(C)c3ccccc23)c2ccccc21` showed an IC50 of 0.55 nM.

Turning to `Cc1[nH]c2ccccc2c1Cc1c(C)[nH]c2ccccc12` [2,2′-dimethylDIM, 2,2′-dimethyl-diindolylmethane], in data set [1], the “Proliferation of TCCSUP human bladder cancer cells” value is reported as “significantly inhibited” and the “Lowest concentration at which TCCSUP cells were inhibited” value was determined as 0.1 µM. Besides, in data set [2], the “Proliferation of J82 human bladder cancer cells” value is recorded as “significantly inhibited”.

`Clc1cccc2[nH]cc(Cc3c[nH]c4cccc(Cl)c34)c12` [4,4′-dichloroDIM]: in data set [3], the “Lowest concentration at which antiproliferative effects could be observed in HT-29 cells” value turned out to be 10 µM and the “Programmed cell death accompanying growth inhibition in HT-29 cells” value is reported as “programmed cell death, or apoptosis; also recorded: programmed cell death or apoptosis”. The “Decrease in HT-29 cell proliferation” value in [3] (25 μM, after 72 hr) stood at 92%.

Regarding `Clc1ccc2[nH]cc(Cc3c[nH]c4ccc(Cl)cc34)c2c1` [5,5′-dichloroDIM, 5,5′-dichloro-diindolylmethane], in data set [1], the “Proliferation of TCCSUP human bladder cancer cells” value is “significantly inhibited” and the “Lowest concentration at which TCCSUP cells were inhibited” value came out at 0.1 µM. The “Proliferation of J82 human bladder cancer cells” value in [2] is given as “significantly inhibited”.

For `Cc1ccc2[nH]cc(Cc3c[nH]c4ccc(C)cc34)c2c1` [5,5′-dimethylDIM, 5,5′-dimethyl-diindolylmethane], in [1], the “Proliferation of TCCSUP human bladder cancer cells” value was “significantly inhibited” and the “Lowest concentration at which TCCSUP cells were inhibited” value was 0.1 µM. Further, the “Proliferation of J82 human bladder cancer cells” value in [2] was “significantly inhibited”. Further, the “MAPKK-induced (pSRE) activity” value in [4] is listed as “inhibited MAPKK-induced activity”.

With `Cc1ccc2c(Cc3c[nH]c4cc(C)ccc34)c[nH]c2c1` [6,6′-dimethlyDIM], the “MAPKK-induced (pSRE) activity” value in data set [4] was “inhibited MAPKK-induced activity”.

In the case of `c1ccc(C(c2c[nH]c3ccccc23)c2c[nH]c3ccccc23)cc1` [C-PhDIM], in data set [5] (listed as C-phenylDIM), the “E2-induced MCF-7 cell proliferation” value is on record as “hormone-induced proliferative response was inhibited” and the “Growth of MCF-7 cells, compound alone” value is on record as “did not induce breast cancer cell proliferation”. In data set [5] (listed as C—C6H5), the “E2-induced MCF-7 cell proliferation” value is given as “significant inhibition of E2-induced cell proliferation” and the “Growth of MCF-7 cells, compound alone” value was “do not affect growth”. Besides, in [6], the “Antiestrogenic activity in T47D cells” value was “antiestrogenic”. In addition, in [7], the Tumor volume was 1025 +/− 245* mm3, the Tumor weight is 1.40 +/− 0.4* g and the “Mammary tumor growth in DMBA-induced rats” value (“Mammary tumor growth” below) is recorded as “potent inhibition of mammary tumor growth”. The “Mammary tumor growth” value in data set [7] (listed as C-phenylDIM) was “potent inhibition of mammary tumor growth”. Moreover, the “Mammary tumor growth” value in [7] (listed as C—PhDIM) is given as “Illustrates inhibition of DMBA-induced mammary tumor growth in female Sprague-”. In data set [8], the “Changes in body/organ weights or tissue histopathology” value was “not accompanied by changes in body/organ weights or altered tissue histopathology”, the EROD was found to be 309 ± 102 pmol/mg/min, the Heart was 0.38 +/− 0.03 % body weight and the Kidney is 0.33 +/− 0.01 % body weight. Moreover, in data set [8], the Liver is 3.2 +/− 0.1 % body weight, the Spleen was 0.33 +/− 0.05 % body weight and the Uterus was 0.19 +/− 0.02 % body weight. For the same compound, in [8] (listed as C-phenylDIM), the “Changes in body/organ weights or tissue histopathology” value is recorded as “not accompanied by changes in body/organ weights on altered tissue histopathology”. This compound came in with an IC50 at Ah receptor of 98 nM.

With `CC(c1c[nH]c2ccccc12)c1c[nH]c2ccccc12` [C-methylDIM], in data set [5], the “E2-induced MCF-7 cell proliferation” value was “hormone-induced proliferative response was inhibited” and the “Growth of MCF-7 cells, compound alone” value is “did not induce breast cancer cell proliferation”. In data set [5] (listed as C—CH3), the “E2-induced MCF-7 cell proliferation” value is recorded as “significant inhibition of E2-induced cell proliferation” and the “Growth of MCF-7 cells, compound alone” value is reported as “do not affect growth”. The “Antiestrogenic activity in T47D cells” value in data set [6] is “antiestrogenic”. On Ah receptor, this compound showed an IC50 of 11 nM.

On to `FC(F)(F)c1ccc(C(c2c[nH]c3ccccc23)c2c[nH]c3ccccc23)cc1` [C—Ph—CF3DIM], for which the “Mammary tumor growth” value in data set [7] is “Illustrates inhibition of DMBA-induced mammary tumor growth in female and C—Ph—CF3DIM”.

`Cn1cc(C(c2ccc(-c3ccccc3)cc2)c2cn(C)c3ccccc23)c2ccccc21` [NMe-C-BiphDIM]: the “Mammary tumor growth” value in data set [7] is listed as “Illustrates inhibition of DMBA-induced mammary tumor growth in female Sprague-”. On Ah receptor (read-out: IC50 competitive binding values, Ah receptor), the IC50 turned out to be 1.8 nM.

In the case of `Cn1cc(C(c2ccc(C(F)(F)F)cc2)c2cn(C)c3ccccc23)c2ccccc21` [NMe-C-Ph-CF3DIM], the “Mammary tumor growth” value in data set [7] is on record as “Illustrates inhibition of DMBA-induced mammary tumor growth in female Sprague-”.

Consider `COc1ccc(C(c2cn(C)c3ccccc23)c2cn(C)c3ccccc23)cc1` [NMe-C-Ph-MeODIM], for which the “Antiestrogenic activity in T47D cells” value in data set [6] is recorded as “antiestrogenic”. For the same compound, the “Mammary tumor growth” value in data set [7] is on record as “Illustrates inhibition of DMBA-induced mammary tumor growth in female Sprague-”.

As for `Cn1cc(C(c2ccccc2)c2cn(C)c3ccccc23)c2ccccc21` [NMe-C-PhDIM], in data set [7], the “Mammary tumor growth” value is given as “Illustrates inhibition of DMBA-induced mammary tumor growth in female Sprague-”.

In the case of `Cc1ccc(C(c2cn(C)c3ccccc23)c2cn(C)c3ccccc23)cc1` [NMe-C-PhMeDIM], the “Mammary tumor growth” value in [7] was “Illustrates inhibition of DMBA-induced mammary tumor growth in female Sprague-”.

On to `Cn1cc(C(c2ccc(O)cc2)c2cn(C)c3ccccc23)c2ccccc21` [NMe-C-PhOHDIM], for which the “Antiestrogenic activity in T47D cells” value in data set [6] is “antiestrogenic”. The “Mammary tumor growth” value in data set [7] is given as “Illustrates inhibition of DMBA-induced mammary tumor growth in female Sprague-”.
